Test results from PubChem BioAssay AID2124 (Sanford-Burnham Center for Chemical Genomics, 2009).
Inconclusive results are not listed. The source made the active and inactive calls. No rule for the calls is given here; tested in MIN6 cells.

Experiment: GFP-wavelength compound autofluorescence in cells – imaging, high-content imaging, artefact control, dose response (AID 2124);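 also: cells exposed to compound for 48 hours before fixing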
Conditions: cells, GFP-channel autofluorescence, high-content imaging, at 10 µM; for z-score: stronger effect = higher value

Q: With `COC(=O)c1sc2ccccc2c1-n1cccc1C(=O)C(=O)Nc1ccc(F)cc1` as the molecule, how does the z-score read?
A: -0.38 (inactive)

Q: And the cell count?
A: 3000 cells

Q: With `Cc1ccc(S(=O)(=O)N2CCCC2C(=O)N(C)Cc2cccs2)cc1` (centres undefined) as the molecule, how does the z-score read?
A: -0.39 (inactive)

Q: What about the cell count of the same molecule?
A: 3120 cells

Q: With `CCOC(=O)COc1ccc(C(=O)NC2CCCCC2)cc1` as the molecule, how does the z-score read?
A: -0.38 (inactive)

Q: And the cell count?
A: 3240 cells

Q: For `Cc1ccc([N+](=O)[O-])cc1NC(=O)c1cccs1`, which z-score is on record?
A: -0.33 (inactive)

Q: And the cell count?
A: 3030 cells

Q: What does the source list for `COc1ccccc1Nc1nc(Cl)c(C=O)s1`?
A: z-score: -0.31 (inactive); cell count: 2970 cells

Q: For `CC1(C)Cc2c(c(-c3ccccc3)[nH]c(=O)c2C#N)CO1`, which z-score is on record?
A: -0.33 (inactive)

Q: What about the cell count of the same molecule?
A: 3520 cells

Q: Which results are given for `CCN(CC)c1ccc2cc(C#N)c(=O)oc2c1`?
A: z-score: -0.32 (inactive); cell count: 3390 cells

Q: With `CCC(=O)OCC(=O)c1c(N)n(Cc2ccccc2)c(=O)n(C)c1=O` as the molecule, how does the z-score read?
A: -0.33 (inactive)

Q: And the cell count?
A: 2890 cells

Q: With `Cc1ccc(-c2cc(-c3ccco3)c3c(N)c(C(=O)NN)oc3n2)cc1` as the molecule, how does the z-score read?
A: -0.32 (inactive)

Q: What about the cell count of the same molecule?
A: 2700 cells

Q: With `C(=C/c1nccc2c1[nH]c1ccccc12)/c1ccc2c(c1)OCO2` as the molecule, how does the z-score read?
A: 0.26

Q: What about the cell count of the same molecule?
A: 1910 cells

Q: What does the source list for `COc1ccc(CC(=O)N2CCN(C)CC2)cc1`?
A: z-score: -0.33 (inactive); cell count: 3120 cells

Q: With `Cc1cc(C)n(C(=O)CCC2COc3ccccc3O2)n1` (centres undefined) as the molecule, how does the z-score read?
A: -0.25 (inactive)

Q: And the cell count?
A: 2940 cells

Q: Which z-score does the source give for `O=C(COc1ccc(Cl)cc1)NCc1nnc(SCC(=O)NC2CCCCC2)o1` here?
A: -0.32 (inactive)

Q: What about the cell count of the same molecule?
A: 3660 cells

Q: For `Oc1c(C=NCc2ccc(F)cc2)[nH]c2ccc(Br)c(Cl)c12`, which z-score is on record?
A: -0.31 (inactive)

Q: What about the cell count of the same molecule?
A: 3310 cells

Q: Which z-score does the source give for `Cc1ccc(NC(=O)CCl)c(C)c1` here?
A: -0.33 (inactive)

Q: And the cell count?
A: 2480 cells

Q: Which z-score does the source give for `CCN(CC)c1ccc(C=C(c2nnnn2-c2ccccc2)c2nnnn2-c2ccccc2)cc1` here?
A: -0.26 (inactive)

Q: And the cell count?
A: 2370 cells

Q: What does the source list for `CC(=O)c1c(COC(=O)c2ccncc2)nc2ccccc2[n+]1[O-]`?
A: z-score: -0.33 (inactive); cell count: 2880 cells

Q: Which results are given for `CC(=O)N1CCN(Cc2nc3cc(NC(=O)c4ccccc4)ccc3n2C)CC1`?
A: z-score: -0.38 (inactive); cell count: 2960 cells

Q: Which results are given for `Cc1cccc2sc(NC(=O)C3CCCN(S(=O)(=O)c4cccc5nonc45)C3)nc12` (centres undefined)?
A: z-score: -0.28 (inactive); cell count: 3130 cells

Q: For `Cc1ccc(/C=[N+](\[O-])c2ccc(N(C)C)cc2)c2nsnc12`, which z-score is on record?
A: -0.38 (inactive)

Q: What about the cell count of the same molecule?
A: 1880 cells

Q: Which results are given for `CCN(CC)c1ccc(/C=C2/SC(=O)N(C(C)C)C2=O)o1`?
A: z-score: 0.73; cell count: 596 cells

Q: For `CC[n+]1c(/C=C/C=C/N(C(C)=O)c2ccccc2)sc2cc(OC)ccc21`, which z-score is on record?
A: 7.8

Q: And the cell count?
A: 111 cells

Q: For `COCc1cc(C)nc(Nc2ccccc2C)c1C#N`, which z-score is on record?
A: -0.34 (inactive)

Q: What about the cell count of the same molecule?
A: 3240 cells

Q: Which results are given for `CCOc1ccc(-c2c(C#N)c(N)nc3sc(C(=O)c4ccccc4)c(N)c23)cc1`?
A: z-score: 0.98; cell count: 3090 cells

Q: Which results are given for `OC1(c2cn(Cc3ccccc3)nn2)CCCCC1`?
A: z-score: -0.33 (inactive); cell count: 3100 cells

Q: With `CN(C)c1ccc(/C=N/NC(=O)CN(c2ccccc2Cl)S(C)(=O)=O)cc1Br` as the molecule, how does the z-score read?
A: -0.39 (inactive)

Q: What about the cell count of the same molecule?
A: 3330 cells

Q: For `Nc1c(C(=O)C2CC2)sc2nc(-c3cccs3)cc(C(F)(F)F)c12`, which z-score is on record?
A: 0.95

Q: What about the cell count of the same molecule?
A: 2750 cells

Q: What does the source list for `CCOc1ccc(C2C(C(=O)O)c3ccccc3C(=O)N2CCN2CCOCC2)cc1` (centres undefined)?
A: z-score: -0.39 (inactive); cell count: 3370 cells

Q: Which z-score does the source give for `CN1CCN(c2ccc(/C=C3\C(=O)NC(=S)N(c4cccc(Br)c4)C3=O)o2)CC1` here?
A: -0.26 (inactive)

Q: And the cell count?
A: 3260 cells

Q: Which z-score does the source give for `Fc1ccc(C2NCCn3cccc32)cc1` (centres undefined) here?
A: -0.38 (inactive)

Q: What about the cell count of the same molecule?
A: 2950 cells

Q: Which z-score does the source give for `COc1ccc(/C=C(\C#N)C(=O)OCC(=O)Nc2c(C)cccc2C(C)C)cc1` here?
A: -0.39 (inactive)

Q: And the cell count?
A: 2950 cells

Q: Which z-score does the source give for `Cc1n[nH]c(C)c1N1C(=O)c2cccc3c(N4CCCCCC4)ccc(c23)C1=O` here?
A: 0.33

Q: And the cell count?
A: 2690 cells

Q: What does the source list for `Cc1ccc(C2CC(=O)NC(SCc3ccccc3)=C2C#N)o1` (centres undefined)?
A: z-score: -0.33 (inactive); cell count: 3270 cells

Q: Which results are given for `CN1C(=S)N(c2cccnc2)C(=O)/C1=C\c1ccc(N(C)C)cc1`?
A: z-score: -0.22 (inactive); cell count: 3030 cells

Q: Which results are given for `CCN1/C(=C/c2cc[n+](CCCS(=O)(=O)[O-])c3ccccc23)Sc2ccccc21`?
A: z-score: -0.24 (inactive); cell count: 1390 cells

Q: Which results are given for `O=C(NCCCN1CCCCCC1)C1CC(=O)N(C2CCCC2)C1` (centres undefined)?
A: z-score: -0.33 (inactive); cell count: 3260 cells

Q: What does the source list for `NS(=O)(=O)c1ccc(NC=C2C(=O)OC3(CCCCC3)OC2=O)cc1`?
A: z-score: -0.25 (inactive); cell count: 3080 cells

Q: Which z-score does the source give for `O=C1C=C(Nc2ccc(O)cc2)CC(c2ccco2)C1` (centres undefined) here?
A: -0.39 (inactive)

Q: What about the cell count of the same molecule?
A: 3020 cells

Q: What does the source list for `O=C(c1ccc2c(c1)OCO2)N1CCCC1`?
A: z-score: -0.33 (inactive); cell count: 2960 cells

Q: With `CCn1c(Cn2nnc(-c3ccccc3)n2)nnc1SCC(=O)Nc1ccc(C(C)=O)cc1` as the molecule, how does the z-score read?
A: -0.33 (inactive)

Q: What about the cell count of the same molecule?
A: 3180 cells

Q: With `Cc1cc(NC(=O)/C(C#N)=C/c2ccc(-c3ccc(SC(F)F)cc3)o2)n(-c2ccccc2)n1` as the molecule, how does the z-score read?
A: 0.3

Q: And the cell count?
A: 2190 cells

Q: With `COc1cc2c3nnc(-c4ccc(F)cc4)c-3cn(Cc3ccc(F)cc3)c2cc1OC` as the molecule, how does the z-score read?
A: 2.53

Q: And the cell count?
A: 274 cells

Q: Which z-score does the source give for `CC(C)(C)C(=O)c1sc2nc(-c3cccs3)cc(C(F)(F)F)c2c1N` here?
A: -0.22 (inactive)

Q: What about the cell count of the same molecule?
A: 2740 cells

Q: Which results are given for `CCN(CC)c1ccc(C(=O)N/N=C/c2ccc(N3CCOCC3)cc2)cc1`?
A: z-score: -0.37 (inactive); cell count: 3040 cells

Q: With `O=C1S/C(=C/c2ccc(N3CCOCC3)o2)C(=O)N1Cc1ccc(F)cc1` as the molecule, how does the z-score read?
A: 0.51

Q: What about the cell count of the same molecule?
A: 3300 cells

Q: With `CC(C)C(C)(C#N)NC(=O)CSc1nnc(C(F)(F)F)n1C` (centres undefined) as the molecule, how does the z-score read?
A: -0.33 (inactive)

Q: And the cell count?
A: 3010 cells

Q: Which results are given for `COc1ccc(C2C(C(=O)N3CCOCC3)CCC(=O)N2c2ccc(OC)cc2)cc1` (centres undefined)?
A: z-score: -0.26 (inactive); cell count: 3020 cells

Q: For `Cc1noc(C)c1S(=O)(=O)N1CCC(C(=O)N2CCN(C3CCCC3)CC2)CC1`, which z-score is on record?
A: -0.33 (inactive)

Q: And the cell count?
A: 2760 cells

Q: With `Cc1ccccc1C(=O)N1CCc2ccccc2C1` as the molecule, how does the z-score read?
A: -0.39 (inactive)

Q: And the cell count?
A: 3270 cells

Q: Which z-score does the source give for `CC(=O)Nc1nc(-c2ccc(Br)s2)cs1` here?
A: -0.39 (inactive)

Q: What about the cell count of the same molecule?
A: 3320 cells

Q: Which z-score does the source give for `COc1cc(OC)cc(C(=O)Nc2cccc(C(C)=O)c2)c1` here?
A: -0.39 (inactive)

Q: And the cell count?
A: 3260 cells

Q: With `CC(C)N1CCc2c(sc(NC(=O)c3ccc(S(=O)(=O)N4CCc5ccccc54)cc3)c2C(N)=O)C1` as the molecule, how does the z-score read?
A: 0.77

Q: And the cell count?
A: 1390 cells

Q: What does the source list for `COCCNC(=O)Cc1ccc(F)cc1`?
A: z-score: -0.33 (inactive); cell count: 2820 cells

Q: Which z-score does the source give for `CCCn1c(SCC(=O)NC2CCCCC2)nnc1-c1ccncc1` here?
A: -0.25 (inactive)

Q: What about the cell count of the same molecule?
A: 2960 cells

Q: Which results are given for `Cc1c(C(c2ccc([N+](=O)[O-])cc2)c2c(C)n(C)n(-c3ccccc3)c2=O)c(=O)n(-c2ccccc2)n1C`?
A: z-score: -0.39 (inactive); cell count: 3040 cells

Q: Which z-score does the source give for `O=C(NC1=NCCS1)C1Cc2ccccc2CN1C(=O)c1ccccc1` (centres undefined) here?
A: -0.34 (inactive)

Q: And the cell count?
A: 2680 cells

Q: For `CCCCCOC(=O)C1=C(C)Nc2nnnn2C1c1ccc(OC)c(OC)c1OC` (centres undefined), which z-score is on record?
A: -0.39 (inactive)

Q: And the cell count?
A: 3580 cells
